{"source": "patent US8920854B2", "about": "“Oral care compositions for treating xerostomia” (Georgia Regents Research Institute, priority 2009, dated 2014)", "assay_type_in_all_cases": "in vivo, mouse", "key": {"[1]": {"test_system": "NOD/Lt mice", "test": "Submandibular gland lymphocytic infiltration in EGCG/water-fed NOD/Lt mice", "settings": "0.2% EGCG in drinking water", "method": "Animals were fed either with EGCG/water or water only. At the age of 8 (n=36), 16 (n=36) and 22 weeks (n=27), submandibular glands were dissected, processed and stained by H&E. Three randomly selected areas of lymphocytic infiltrates were measured in each gland as relative density units generated by BIOQUANT NOVA PRIME 6.75 software, representing area sizes. Error bars are standard error of means (SEM). […] An animal study was conducted to examine whether EGCG fed prior to development of exocrinopathy is protective against salivary gland lymphocyte infiltration and gland abnormalities. Since EGCG is the most abundant green tea polyphenol, and widely used in scientific studies, this compound was selected for this feasibility study using 0.2% EGCG in drinking water (Gillespie K, et al. 2008)."}, "[2]": {"test_system": "TUNEL-positive cells in submandibular gland", "test": "Apoptotic activity in salivary glands by TUNEL staining, NOD/Lt mice", "settings": "0.2% EGCG in drinking water, 8, 16, 22 weeks", "from_the_text": "Submandibular salivary gland samples from BALB/c (left), water-fed (middle), and EGCG-fed (right) NOD/Lt mice were stained with ApopTag Plus Peroxidase in situ apoptosis detection method according to the manufacturer's instructions. Arrows point to the nuclear staining of TUNEL-positive cells. […] Submandibular salivary gland samples from BALB/c (left), water-fed (middle), and EGCG-fed (right) NOD/Lt mice were immunostained with the anti-PCNA antibody. Arrows point to the nuclear staining of PCNA-positive cells. […] Submandibular salivary gland samples from BALB/c (left), water-fed (middle), and EGCG-fed (right) NOD/Lt mice were immunostained with the anti-Ki-67 antibody. Arrows point to the nuclear staining of Ki-67-positive cells. […] Solid bars represent the average percentage of TUNEL-positive cells in the submandibular gland of water-fed NOD/Lt mice. Open bars represent the average of TUNEL-positive cells in the submandibular gland of EGCG-fed NOD/Lt mice. […] Solid bars represent the average percentage of PCNA-positive cells in the submandibular gland of water-fed NOD/Lt mice. […] The apoptotic activity was determined by TUNEL staining of the salivary glands (FIG. 5A) and quantification (FIG. 6A). […] Although it was not determined which cells were undergoing apoptosis, there was no significant apoptotic activity in the majority of secretory cells (Gillespie K, et al. 2008)."}, "[3]": {"test_system": "Ki-67", "test": "Ki-67 immunostaining of submandibular glands, NOD/Lt mice", "settings": "0.2% EGCG in drinking water, 8, 16, 22 weeks", "from_the_text": "(§1) Submandibular salivary gland samples from BALB/c (left), water-fed (middle), and EGCG-fed (right) NOD/Lt mice were stained with ApopTag Plus Peroxidase in situ apoptosis detection method according to the manufacturer's instructions. Arrows point to the nuclear staining of TUNEL-positive cells. […] Submandibular salivary gland samples from BALB/c (left), water-fed (middle), and EGCG-fed (right) NOD/Lt mice were immunostained with the anti-PCNA antibody. Arrows point to the nuclear staining of PCNA-positive cells. […] Submandibular salivary gland samples from BALB/c (left), water-fed (middle), and EGCG-fed (right) NOD/Lt mice were immunostained with the anti-Ki-67 antibody. Arrows point to the nuclear staining of Ki-67-positive cells. […] Solid bars represent the average percentage of TUNEL-positive cells in the submandibular gland of water-fed NOD/Lt mice. Open bars represent the average of TUNEL-positive cells in the submandibular gland of EGCG-fed NOD/Lt mice. […] Solid bars represent the average percentage of PCNA-positive cells in the submandibular gland of water-fed NOD/Lt mice. Open bars represent the average of PCNA-positive cells in the submandibular gland of EGCG-fed NOD/Lt mice. […] Solid bars represent the average of Ki-67-positive cells in the submandibular gland of water-fed NOD/Lt mice. Open bars represent the average of Ki-67-positive cells in the submandibular gland of […] […]"}, "[4]": {"test_system": "catalase", "test": "Antioxidant capacity by immunohistochemistry in NOD mice: catalase", "settings": "submandibular salivary glands, EGCG-fed NOD/Lt mice, 22 weeks; n=12, p<0.04", "from_the_text": "(§2) FIGS. 8A-8C, 8D-8F show representative immunostaining of peroxiredoxin 6 (FIGS. 8A-C) and catalase (FIGS. 8D-F) expression in glandular epithelium of 22 week old water-fed (FIGS. 8A, 8D) and EGCG-treated NOD mice (FIGS. 8B, 8E) (magnification 200×). FIGS. 8C and 8F show statistical analysis of peroxiredoxin 6 and Catalase-positive cells. Black arrows point to ductal cells; open arrow to acinar cells (FIG. 8B). Salivary gland and pancreas samples were obtained at 22 weeks of age from NOD mice fed water or EGCG-water (12 animals per group), and from control BALB/c mice. The antioxidant capacity represented by protein levels of peroxiredoxin 6, superoxide dismutase 1 (SOD1), catalase, and glutathione peroxidase was measured by immunohistochemstry."}, "[5]": {"test_system": "PCNA", "test": "PCNA immunostaining of submandibular glands, NOD/Lt mice", "settings": "0.2% EGCG in drinking water, between 16 and 22 weeks of age", "from_the_text": "as §1"}, "[6]": {"test_system": "peroxiredoxin 6", "test": "Antioxidant capacity by immunohistochemistry in NOD mice: peroxiredoxin 6", "settings": "22 weeks", "from_the_text": "as §2"}, "[7]": {"test_system": "superoxide dismutase 1 (SOD1)", "test": "Antioxidant capacity by immunohistochemistry in NOD mice: SOD1", "settings": "EGCG-fed NOD mice, 22 weeks, n=12, P<0.0001", "method": "Salivary gland and pancreas samples were obtained at 22 weeks of age from NOD mice fed water or EGCG-water (12 animals per group), and from control BALB/c mice. The antioxidant capacity represented by protein levels of peroxiredoxin 6, superoxide dismutase 1 (SOD1), catalase, and glutathione peroxidase was measured by immunohistochemstry."}}, "data": [{"molecule": "O=C(O[C@@H]1Cc2c(O)cc(O)cc2O[C@@H]1c1cc(O)c(O)c(O)c1)c1cc(O)c(O)c(O)c1", "note": "[EGCG, epigallocatechin-3-gallate]", "values": [{"measurement": "average area of lymphocytic infiltration vs water-fed group", "setting": "[1]; 16 weeks of age, p=0.026", "result": "significantly lower"}, {"measurement": "average area of lymphocytic infiltration vs water-fed group", "setting": "[1]; 22 weeks of age", "result": "no significant difference"}, {"measurement": "apoptosis in the glandular epithelium (TUNEL)", "setting": "[2]", "result": "did not affect"}, {"measurement": "apoptosis in the infiltrates (TUNEL)", "setting": "[2]", "result": "initially raising levels, but blocking the considerable increase seen at 22 weeks in water-fed mice"}, {"measurement": "Ki-67 levels in submandibular glands", "setting": "[3]", "result": "affected by EGCG in the same pattern"}, {"measurement": "expression of catalase vs water only fed mice", "setting": "[4]", "result": "significantly higher"}, {"measurement": "PCNA-positive cells in submandibular glands", "setting": "[5]", "result": "considerably reduces the rise of PCNA"}, {"measurement": "peroxiredoxin 6 level in the pancreas", "setting": "[6]; pancreas, EGCG-fed NOD mice, n=12, P<0.0001", "result": "normalized to BALB/c levels"}, {"measurement": "expression of peroxiredoxin 6 vs water only fed mice", "setting": "[6]; submandibular salivary glands, EGCG-fed NOD/Lt mice, n=12, p<0.04", "result": "significantly higher"}, {"measurement": "SOD1 level in the pancreas", "setting": "[7]", "result": "normalized to BALB/c levels"}]}]}
